This is an account of results in patent publication US11028061B2, “Modulators of myocyte lipid accumulation and insulin resistance and methods of use thereof” (Sanford Burnham Prebys Medical Discovery Institute, priority 2015, dated 2021).

The subject of one assay is rat H9c2 myocytes. The assay is described as follows: Inhibition of TAG accumulation in rat H9c2 myocytes. Type of assay: cell-based. The settings on record: data not shown.
Assay [1] concerns human skeletal myotubes. Nature of the assay: Triglyceride accumulation in oleate-loaded human skeletal myotubes. Type of assay: cell-based. The settings on record: Myotube, 100 μM oleate 24 hours, read-out: EC50, inhibition of TAG accumulation. Here is the method:
Human skeletal myotubes were differentiated for 8 days. On day 7, 100 μM of oleic acid complexed to fatty acid-free BSA was added to the cells with the indicated concentration of test compound for 24 hours. Following incubation with oleate and compound, cells were formaldehyde fixed and stained with AdipoRed™ (Lonza). Triglyceride accumulation was measured using signal intensity at excitation 540/emission 590 nm (Bio-Tek Instruments, Inc.). Dose response curves were generated in Prism 6 (GraphPad Software). EC50 values were calculated using non-linear regression analysis. For biochemical measurement of triglyceride, human skeletal myotubes were incubated with oleate-BSA and test compound as described above. After 24 hour incubation, cells were collected with a lysis buffer containing 0.1% IGEPAL CA-630 (Sigma-Aldrich) in PBS. The harvested cells were sonicated for 5 seconds and then centrifuged at 10,000×g for 10 minutes at 4° C. The supernatant was removed and stored on ice. TAG levels were quantified using Infinity™ Triglycerides Liquid Stable Reagent (Thermo Scientific), following the manufacturer's instructions for colorimetric assay.
Student's t-test, Mann Whitney test, one-way ANOVA with Bonferroni post hoc test, or two-way ANOVA with Tukey post hoc test was performed to determine statistical significance as indicated. […]

The test system of assay [2] is human skeletal myotubes. Nature of the assay: Quantitative lipidomic analyses and TAG biosynthesis pathway modeling. In kind it is cell-based. The settings on record: oleate-loaded myotubes. The procedure:
Quantitative lipidomic analyses was performed on human skeletal myotubes exposed to bovine albumin serum (BSA) or 100 μM oleate in the presence of DMSO vehicle (white bars) or 10 μM SBI-477 (black bars) for 24 hours.
Primary human myotubes were treated with BSA or 100 μM oleate with 10 μM SBI-477 or a vehicle control for 24 hours. The cells were added to […] in an Eppendorf tube and homogenized for 1 minute using a disposable soft tissue homogenizer. A 25 μL aliquot was used to determine the protein content (BCA protein assay kit, Thermo Scientific, Rockford, Ill.). The remaining homogenate was accurately transferred into a disposable glass culture test tube, and a mixture of lipid internal standards was added prior to lipid extraction for quantification of all reported lipid species. Lipid extraction was performed by using a modified Bligh and Dyer procedure as described previously (Wang and Han, 2014). Each lipid extract was resuspended into a volume of 500 μL of chloroform/methanol (1:1, v/v) per mg of protein and flushed with nitrogen, capped, and stored at −20° C. for lipid analysis. For ESI direct infusion analysis, lipid extract was further diluted to a final concentration of ˜500 fmol/μL, and the mass spectrometric analysis was performed on a QqQ mass spectrometer (Thermo TSQ VANTAGE, San Jose, Calif.) equipped with an automated nanospray device (TriVersa NanoMate, Advion Bioscience Ltd., Ithaca, N.Y.).
Intracellular TAG can be formed through reacylation of DAG species generated from several pathways including a de novo glycerolphosphate biosynthetic pathway that involves dephosphorylation of phosphatidic acid (DAGPA), reacylation of monoacylglycerol (DAGMAG), and to a lesser extent, hydrolysis of phosphatidyl inositol (DAGPI). […] This approach uses the individual TAG ion profile, as determined by mass spectrometry, to predict the relative contribution of each pathway to the overall cellular TAG pool. […]

Another assay has as its system MGAT1/2/3. Nature of the assay: Direct inhibition of MGAT1/2/3 activity. Type of assay: biochemical. Particulars: data not shown.
In a further assay the test system is H9c2 myotubes. The assay is described as follows: Glycogen synthesis in H9c2 myotubes. Type of assay: cell-based, Rat.
For the next assay, the system named is TXNIP. The assay is described as follows: TXNIP protein levels by western blot. Type of assay: cell-based. Particulars: human myotubes. The procedure: FIGS. 4A-C show downregulation of TXNIP and ARRDC4 expression by SBI-477. (FIG. 4A) TXNIP and ARRDC4 mRNA levels as determined by quantitative RT-PCR in human myotubes treated with SBI-477 (10 μM) or DGAT1 inhibitor (DGATi, […]) for 24 hours in the absence or presence of 100 μM oleate (n=4). Expression is shown relative to vehicle/BSA treatment. (FIG. 4B) TXNIP gene expression following exposure to a dose range of SBI-477 for 24 hours (n=4). (FIG. 4C) Left, Effect of SBI-477 on TXNIP protein levels as determined by western blot analysis by SBI-477. Right, Quantitation of the TXNIP western blot data is shown (n=5). *p<0.05 vs. Vehicle/BSA control, †p<0.05 vs. Vehicle/oleate by one-way ANOVA with Bonferroni post hoc test. The data are shown as mean±SD.
Cells were lysed in the RIPA buffer containing 1% NP-40, 5 mM Na4P2O7, 1 mM EDTA, 20 mM NaF, 2 mM Na3VO4, 1× cOmplete™ protease inhibitor (Roche) and 1 mM phenylmethylsulfonyl fluoride. Whole cell lysates were subjected to SDS-PAGE and transferred to a nitrocellulose membrane. The blots were hybridized with specific antibodies and developed with enhanced chemiluminescence kit (Pierce). […] Protein quantification was performed using FluorChemQ (Alpha Innotech) and normalized to […]-actin or total protein where indicated.

pEC50: −log10 of the molar value.

`COc1ccc(-c2csc(NC(=O)c3ccc(OCC(=O)N4CCOCC4)c(OC)c3)n2)cc1` [Cpd. 7, 3-methoxy-N-(4-(4-methoxyphenyl)thiazol-2-yl)-4-(2-morpholino-2-oxoethoxy)benzamide]: the pEC50 in the assay with rat H9c2 myocytes was around 7.00. The pEC50 in the assay on human skeletal myotubes [1] was around 6.00. Moreover, the “Levels of ceramide and total sphingomyelin” value in the assay on human skeletal myotubes [2] is on record as “not significantly altered”. Besides, in the assay on human skeletal myotubes [2] (24 hour exposure), the DAG species levels entry is given as “reduced” and the TAG species levels result is reported as “reducing all TAG species measured”. Further, in the assay with MGAT1/2/3, the “Direct inhibition of MGAT1/2/3 activity” value is on record as “not found that SBI-477 directly inhibits”. The “Insulin-stimulated glycogen synthesis compared to vehicle” value in the assay on H9c2 myotubes is given as “increased insulin-stimulated glycogen synthesis”. In addition, the TXNIP protein levels entry with TXNIP is “reduced by SBI-477 in dose-dependent manner”.
